This note sets out measurements from PMC10285648, “iTAG an optimized IMiD-induced degron for targeted protein degradation in human and murine cells” (iScience, 2023).

A value given as a limit tells only on which side of the number the result lay.

Series [1] relates to N-terminally tagged cMYC, RBM39, BRD4 (Flag-HA-DCD23 or Flag-HA-FKBP12^[F36V]). Briefly: Western blotting, iTAG versus dTAG fused proteins in SUM159. The format is cell-based, human. Conditions: SUM159, dTAG-13 on dTAG, CC220 on iTAG. Here is the method:
The fusion constructs were stably expressed in SUM159 cells and loss of protein was determined by western blotting.
The protein lysates were probed for HA using western blotting. […] The protein lysates were probed for HA using western blotting. […] Median EGFP intensity was measured in each condition using flow cytometry. (3 independent experiments, represented as mean ± SD).
The dTAG system has also been adapted to direct targets to the E3 CRL2^VHL using the PROTAC dTAG^V-1^16. […] We evaluated the degradation N-terminally tagged cMYC and RBM39 dTAG^V-1, we included BRD4 as a control as it was reported to be a well degraded target in the initial dTAG optimization (Figure 3C).[15]
For the pHAGE-PGK constructs: DCD23, SuperDegron and FKBP12^F36V were separately cloned into a pHAGE-PGK DEST backbone. cDNA encoding the indicated protein was then cloned from pENTR221 into the pHAGE-PGK-DCD23, pHAGE-PGK-SuperDegron or pHAGE-PGK-FKBPF36V DEST vector using Gateway cloning. SUM159 cells were transduced with the indicated lentivirus and selected with puromycin.
Cells were lysed with SDS lysis buffer (2% SDS, 10% Glycerol, 50mM Tris pH 6.8) and boiled at 95°C for 30min. Protein concentration was measured using Pierce BCA Protein Assay Kit (ThermoFischer) following manufacturer’s recommendations. Samples were ran in NuPAGETM 10% Bis-Tris Midi electrophoresis gels (Invitrogen) using NuPAGETM MES SDS running buffer (ThermoFischer Scientific). Proteins were subsequently transferred to an Immobilon-P polyvinylidene Difluoride (PVDF) membrane (Merck Millipore) using the wet-transfer method (Bio-Rad) in a transfer buffer consisting of 20% (v/v) methanol and 10% protein electrophoresis buffer (24.77 mM Tris and 0.192 M glycine).
(§1) For western blotting membranes were blocked in a solution of 5% (w/v) bovine serum albumin (BSA; Sigma-Aldrich) dissolved in TBS-0.1% Tween 20 (Sigma-Aldrich) then incubated at 4°C overnight with the primary antibodies diluted in 5% (w/v) BSA/TBS-T. The membranes where then washed and incubated with anti-mouse and/or anti-rabbit secondary antibodies (LI-COR Biosciences) for 2h at RT diluted in 5% (w/v) BSA/TBS-T then washed and imaged using the LI-COR Odyssey (LI-COR Biosciences). Images were analyzed using Image Studio Lite software (LI-COR Biosciences).
Background: Immunoblotting shows a protein as a band on a membrane.

The test system of a further series is FLuc-EGFP-DCD23. Briefly: In vitro luciferase and EGFP signal in MDA-MB-231 (FLuc-EGFP-DCD23). The format is cell-based, human. Conditions: MDA-MB-231, in vitro.
The nature of series [2]: Plasma CC220 level in tumor-bearing mice. The format is in vivo. As to conditions: mouse, 30 mg/kg oral, 24h post administration.
The next series deals with cMYC-EGFP-DCD23. Briefly: Degradation of cMYC-EGFP-DCD23 in HMEC (flow cytometry, western blotting). In kind it is cell-based, human.
Description: To systematically delineate the optimal DCD/degrader combination for targeted protein degradation, we undertook a matrix approach evaluating all 23 DCD tags against 6 small molecule degraders. […] To control for any potential off-target effects of the IMiD/CeLMOD agents that could indirectly affect the target of interest, we designed controls in which the specific DCD and the EGFP sequences were interspaced by a P2A ribosomal “skipping” sequence,[32] leading to separate translation of the DCD and the target protein (Figure 1A). These constructs were then inserted into a doxycycline-inducible lentiviral vector system and stably expressed in hTERT immortalized human mammary epithelial cells (HMEC), a suitable model to assess the functional consequences of cMYC degradation. cMYC was tagged at the C-terminus end for the initial screening experiments.
Figure 1 Design and experimental evaluation of the DCD tags (A) Representation of the experimental pipeline used to evaluate the different DCD constructs. […] Median EGFP intensity was measured in each condition using flow cytometry (3 independent experiments, normalized to the control and represented as mean ± SD). […] The protein lysates were probed for cMYC levels using western blotting. […] Target loss was evaluated either by measuring EGFP median intensity using flow cytometry or western blotting for cMYC protein (3 independent experiments, normalized to the control and represented as mean ± SD). […] Target loss was evaluated as in (D) (3 independent experiments, normalized to the control and represented as mean ± SD). […] Protein lysates were collected and probed for cMYC and p21 using western blotting. […] Protein lysates were collected and probed for cMYC and p21 using western blotting. […] These were left out as controls with no test substance.
Following degrader treatment cells were collected and DAPI was added to the cell suspension at 1 μg/mL to allow the exclusion of dead cells. EGFP signal was measured using BD LSR II flow cytometer (BD Biosciences). FlowJo 10 Software (FlowJo) was used for data processing.
Cells were lysed with SDS lysis buffer (2% SDS, 10% Glycerol, 50mM Tris pH 6.8) and boiled at 95°C for 30min. Protein concentration was measured using Pierce BCA Protein Assay Kit (ThermoFischer) following manufacturer’s recommendations. Samples were ran in NuPAGETM 10% Bis-Tris Midi electrophoresis gels (Invitrogen) using NuPAGETM MES SDS running buffer (ThermoFischer Scientific).
as §1

For `O=C1CC[C@H](N2Cc3c(OCc4ccc(CN5CCOCC5)cc4)cccc3C2=O)C(=O)N1` [CC220, Iberdomide], in series [1], the “concentrations at which targets are degraded” value lay in the range of 0.01 to 10 µM. The “time of onset of degradation of cMYC and RBM39” value in series [1] (1, 2 or 4h) was at most 1 h. Further, in the series on FLuc-EGFP-DCD23, the “lowest concentration giving decrease in luciferase and EGFP signal” value was at most 0.05 µM; the “time to decrease in luciferase and EGFP signal” value is recorded as at most 3 h. Further, the residual plasma level entry in series [2] is reported as “nanomolar range”. Further, the “c-MYC levels after washout” value with cMYC-EGFP-DCD23 (10μM 4h, then drug washed out, 24h or 48h) was “restored back to pre-treatment levels”. For the same compound, the “time to significant degradation of c-MYC tagged with DCD23” value in the series on cMYC-EGFP-DCD23 (HMEC, 10uM) is at most 15 min. Moreover, the “p21 levels after degradation of DCD23-tagged cMYC” value in the series with cMYC-EGFP-DCD23 (HMEC, 10μM, 16h, western blotting) was “restoration of p21 levels”. In the series on cMYC-EGFP-DCD23 (HMEC, 4h), the DC50 (usually the concentration giving 50% degradation) came to 2 nM and the “DCmax at 4h” value was 75%.
